Structures can show the parent of a compound that is named as a salt. Where two headings read alike, the source gives them in different places.
How the values were obtained:
hPDE4D = hPDE4D (Homo sapiens, UniProt Q08499); experiment: In-vitro real-time enzyme-coupled spectrophotometric assay for PDE4 enzymes (hPDE4D)
hPDE4B = hPDE4B (Homo sapiens, UniProt Q07343); experiment: In-vitro real-time enzyme-coupled spectrophotometric assay for PDE4 enzymes (hPDE4B)
[1] = read-out: hPDE4D activity, enzyme-coupled NADH assay, absorbance at 340 nm
[2] = read-out: hPDE4B activity, enzyme-coupled NADH assay, absorbance at 340 nm

Chain of hPDE4B (Q07343 whole entry): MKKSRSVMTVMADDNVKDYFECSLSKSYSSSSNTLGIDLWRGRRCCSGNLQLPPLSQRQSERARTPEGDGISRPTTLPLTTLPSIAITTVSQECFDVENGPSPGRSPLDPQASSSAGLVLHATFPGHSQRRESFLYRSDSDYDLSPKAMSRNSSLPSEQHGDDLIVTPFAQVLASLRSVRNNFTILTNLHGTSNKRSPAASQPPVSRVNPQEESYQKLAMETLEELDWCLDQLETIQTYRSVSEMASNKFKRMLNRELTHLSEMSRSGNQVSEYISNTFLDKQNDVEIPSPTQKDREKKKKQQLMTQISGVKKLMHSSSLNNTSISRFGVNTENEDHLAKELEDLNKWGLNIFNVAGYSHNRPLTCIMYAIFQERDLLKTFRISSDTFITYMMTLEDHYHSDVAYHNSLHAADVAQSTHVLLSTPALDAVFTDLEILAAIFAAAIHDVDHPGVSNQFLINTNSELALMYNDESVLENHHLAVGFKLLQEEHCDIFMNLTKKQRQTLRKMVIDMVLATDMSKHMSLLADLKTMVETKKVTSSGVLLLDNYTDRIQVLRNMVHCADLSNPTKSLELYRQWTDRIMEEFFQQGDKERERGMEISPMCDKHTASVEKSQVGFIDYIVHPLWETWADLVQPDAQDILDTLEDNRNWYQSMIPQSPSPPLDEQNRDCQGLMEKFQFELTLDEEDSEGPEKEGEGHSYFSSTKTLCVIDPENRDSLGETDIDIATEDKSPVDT
Chain of hPDE4D (Q08499 whole entry): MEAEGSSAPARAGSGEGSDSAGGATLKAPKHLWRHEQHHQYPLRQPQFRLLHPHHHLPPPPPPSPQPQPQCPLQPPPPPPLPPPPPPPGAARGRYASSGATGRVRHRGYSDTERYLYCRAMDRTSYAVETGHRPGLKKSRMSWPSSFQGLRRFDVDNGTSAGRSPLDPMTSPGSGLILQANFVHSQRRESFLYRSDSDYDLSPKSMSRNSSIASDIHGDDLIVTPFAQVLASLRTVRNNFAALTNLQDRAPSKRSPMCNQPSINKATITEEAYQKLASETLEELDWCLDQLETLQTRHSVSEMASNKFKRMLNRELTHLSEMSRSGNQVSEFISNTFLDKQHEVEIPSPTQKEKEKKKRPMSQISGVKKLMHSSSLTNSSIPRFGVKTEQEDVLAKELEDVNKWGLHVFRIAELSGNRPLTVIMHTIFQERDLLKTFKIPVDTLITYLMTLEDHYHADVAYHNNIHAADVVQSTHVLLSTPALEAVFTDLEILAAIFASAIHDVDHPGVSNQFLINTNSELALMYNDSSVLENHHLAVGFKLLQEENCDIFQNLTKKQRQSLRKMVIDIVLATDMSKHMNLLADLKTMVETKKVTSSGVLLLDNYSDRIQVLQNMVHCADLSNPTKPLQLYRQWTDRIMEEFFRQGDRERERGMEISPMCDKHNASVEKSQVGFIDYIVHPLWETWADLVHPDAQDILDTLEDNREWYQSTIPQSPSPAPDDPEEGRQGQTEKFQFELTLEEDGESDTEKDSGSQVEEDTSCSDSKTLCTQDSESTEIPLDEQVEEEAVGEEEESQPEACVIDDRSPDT

| IC50 (hPDE4D) | IC50 (hPDE4B) | Compound | IC50 (hPDE4D; [1]) | IC50 (hPDE4B; [2]) |
| --- | --- | --- | --- | --- |
|  |  | 1-[5-(3′-Chloro-2-fluoro-6-methoxy-biphenyl-3-ylmethyl)-pyrimitlin-2-yl]-piperidine-2-carboxylic acid [Example A-041] | < 5 µM | 5 to 20 µM |
| 5 to 20 µM |  | COc1ccc(CN2C(=O)c3ccccc3S2(=O)=O)cc1-c1cccc([N+](=O)[O-])c1 [Example A-002, 2-(6-Methoxy-3′-nitro-biphenyl-3-ylmethyl)-1,1-dioxo-1,2-dihydro-1lambda*6*-benzo[d]isothiazol-3-one] |  |  |
| < 5 µM | 5 to 20 µM | COc1ccc(Cn2cnc3c(Cl)nc(N)nc32)cc1-c1cccc([N+](=O)[O-])c1 [Example A-003, 6-Chloro-9-(6-methoxy-3′-nitro-biphenyl-3-ylmethyl)-9H-purin-2-ylamine] |  |  |
| 5 to 20 µM | 20 to 40 µM | COc1ccc(Cn2cnc3c(=O)[nH]c(N)nc32)cc1-c1cccc([N+](=O)[O-])c1 [Example A-004, 2-Amino-9-(6-methoxy-3′-nitro-biphenyl-3-ylmethyl)-1,9-dihydro-purin-6-one] |  |  |
| 20 to 40 µM |  | COC(=O)[C@H]1C[C@H](O)CN1Cc1ccc(OC)c(-c2cccc([N+](=O)[O-])c2)c1 [Example A-005, (2R,4S)-4-Hydroxy-1-(6-methoxy-3′-nitro-biphenyl-3-ylmethyl)-pyrrolidine-2-carboxylic acid methyl ester] |  |  |
| < 5 µM | 5 to 20 µM | COc1ccc(Cc2c(C)nn(CC(=O)O)c2C)cc1-c1cccc([N+](=O)[O-])c1 [Example A-006, [4-(6-Methoxy-3′-nitro-biphenyl-3-ylmethyl)-3,5-dimethyl-pyrazol-1-yl]-acetic acid] |  |  |
| 5 to 20 µM | 5 to 20 µM | COc1ccc(Cn2ccc(C(=O)O)cc2=O)cc1-c1cccc([N+](=O)[O-])c1 [Example A-007, 1-(6-Methoxy-3′-nitro-biphenyl-3-ylmethyl)-2-oxo-1,2-dihydro-pyridine-4-carboxylic acid] |  |  |
| < 5 µM | < 5 µM | COc1ccc(Cc2ccc(NS(N)(=O)=O)cc2)c(F)c1-c1cccc(Cl)c1 [Example A-008] |  |  |
| < 5 µM | < 5 µM | COc1ccc(Cc2ccc(NS(N)(=O)=O)nc2)c(F)c1-c1cccc(Cl)c1 [Example A-010] |  |  |
| < 5 µM | 5 to 20 µM | COc1ccc(Cc2ccc(NS(N)(=O)=O)c(O)c2)c(F)c1-c1cccc(Cl)c1 [Example A-011] |  |  |
| < 5 µM | < 5 µM | COc1ccc(Cc2cnc(NS(N)(=O)=O)nc2)c(F)c1-c1cccc(Cl)c1 [Example A-012] |  |  |
| < 5 µM | 5 to 20 µM | COc1ccc(Cc2ccc(NC(N)=O)[n+]([O-])c2)c(F)c1-c1cccc(Cl)c1 [Example A-014] |  |  |
| < 5 µM | < 5 µM | COc1ccc(Cc2cnc(NC(N)=O)[n+]([O-])c2)c(F)c1-c1cccc(Cl)c1 [Example A-015] |  |  |
| < 5 µM | < 5 µM | COc1ccc(Cc2ccc(NS(N)(=O)=O)cc2)c(F)c1-c1cccc(C(C)=O)c1 [Example A-016] |  |  |
| < 5 µM | < 5 µM | COc1ccc(Cc2cnc(NS(N)(=O)=O)nc2)c(F)c1-c1cccc(C(C)=O)c1 [Example A-017] |  |  |
| < 5 µM | 20 to 40 µM | COC(=O)c1ccc(Cc2ccc(OC)c(-c3cccc(C(C)=O)c3)c2F)cc1 [Example A-018, 4-(3′-Acetyl-2-fluoro-6-methoxy-biphenyl-3-ylmethyl)-benzoic acid methyl ester] |  |  |
| < 5 µM | 5 to 20 µM | COc1ccc(Cc2ccc(C(=O)O)cc2)c(F)c1-c1cccc(C(C)=O)c1 [Example A-019, 4-(3′-Acetyl-2-fluoro-6-methoxy-biphenyl-3-ylmethyl)-benzoic acid] |  |  |
| < 5 µM | < 5 µM | COC(=O)c1ccc(Cc2ccc(OC)c(-c3cccc(C(C)=O)c3)c2F)cn1 [Example A-020, 5-(3′-Acetyl-2-fluoro-6-methoxy-biphenyl-3-ylmethyl)-pyridine-2-carboxylic acid methyl ester] |  |  |
| 5 to 20 µM | 5 to 20 µM | COc1ccc(Cc2ccc(C(=O)O)nc2)c(F)c1-c1cccc(C(C)=O)c1 [Example A-021, 5-(3′-Acetyl-2-fluoro-6-methoxy-biphenyl-3-ylmethyl)-pyridine-2-carboxylic acid] |  |  |
| < 5 µM |  | COc1ccc(Cc2ccc(NC(=O)NCC(=O)O)cc2)c(F)c1-c1cccc(Br)c1 [Example A-022, {3-[4-(3′-Bromo-2-fluoro-6-methoxy-biphenyl-3-ylmethyl)-phenyl]-ureido}-acetic acid] |  |  |

| IC50 (hPDE4D) | IC50 (hPDE4B) | Compound | IC50 (hPDE4D; [1]) | IC50 (hPDE4B; [2]) |
| --- | --- | --- | --- | --- |
| < 5 µM |  | COc1ccc(Cc2ccc(NC(=O)NCCC(=O)O)cc2)c(F)c1-c1cccc(Br)c1 [Example A-023, 3-{3-[4-(3′-Bromo-2-fluoro-6-methoxy-biphenyl-3-ylmethyl)-phenyl]-ureido}-propionic acid] |  |  |
| < 5 µM |  | CCOC(=O)CNC(=O)Nc1nnc(Cc2ccc(OC)c(-c3cccc(Cl)c3)c2F)s1 [Example A-024, {3-[5-(3′-Chloro-2-fluoro-6-methoxy-biphenyl-3-ylmethyl)-[1,3,4]thiadiazol-2-yl]-ureido}-acetic acid ethyl ester] |  |  |
| < 5 µM |  | CCOC(=O)CCNC(=O)Nc1nnc(Cc2ccc(OC)c(-c3cccc(Cl)c3)c2F)s1 [Example A-025, 3-{3-[5-(3′-Chloro-2-fluoro-6-methoxy-biphenyl-3-ylmethyl)-[1,3,4]thiadiazol-2-yl]-ureido}-propionic acid ethyl ester] |  |  |
| < 5 µM |  | COc1ccc(Cc2nnc(NC(=O)NCC(=O)O)s2)c(F)c1-c1cccc(Cl)c1 [Example A-026, {3-[5-(3′-Chloro-2-fluoro-6-methoxy-biphenyl-3-ylmethyl)-[1,3,4]thiadiazol-2-yl]-ureido}-acetic acid] |  |  |
| < 5 µM | 20 to 40 µM | COc1ccc(Cc2nnc(NC(=O)NCCC(=O)O)s2)c(F)c1-c1cccc(Cl)c1 [Example A-027, 3-{3-[5-(3′-Chloro-2-fluoro-6-methoxy-biphenyl-3-ylmethyl)-[1,3,4]thiadiazol-2-yl]-ureido}-propionic acid] |  |  |
| < 5 µM | < 5 µM | COc1ccc(Cc2ccc(NC(=O)NCC(=O)O)nc2)c(F)c1-c1cccc(Cl)c1 [Example A-028] |  |  |
| < 5 µM |  | CCOC(=O)CCNC(=O)Nc1ccc(Cc2ccc(OC)c(-c3cccc(Cl)c3)c2F)cn1 [Example A-029] |  |  |
| < 5 µM | 5 to 20 µM | CCOC(=O)CCCNC(=O)Nc1nnc(Cc2ccc(OC)c(-c3cccc(Cl)c3)c2F)s1 [Example A-030, 4-{3-[5-(3′-Chloro-2-fluoro-6-methoxy-biphenl-3-ylmethyl)-[1,3,4]thiadiazol-2-yl]-ureido}-butyric acid ethyl ester] |  |  |
| < 5 µM |  | CCOC(=O)C1CCN(C(=O)c2ccc(Cc3ccc(OC)c(-c4cccc(Cl)c4)c3F)cn2)CC1 [Example A-033, 1-[5-(3′-Chloro-2-fluoro-6-methoxy-biphenyl-3-ylmethyl)-pyridine-2-carbonyl]-piperidine-4-carboxylic acid ethyl ester] |  |  |
| < 5 µM |  | CCOC(=O)c1cn2cc(Cc3ccc(OC)c(-c4cccc(Cl)c4)c3F)ccc2n1 [Example A-039, 6-(3′-Chloro-2-fluoro-6-methoxy-biphenyl-3-ylmethyl)-imidazo[1,2-a]pyridine-2-carboxylic acid ethyl ester] |  |  |
| < 5 µM |  | COC(=O)C1CCN(c2ncc(Cc3ccc(OC)c(-c4cccc(Cl)c4)c3F)cn2)C1 (stereo not drawn) [Example A-045, 1-[5-(3′-Chloro-2-fluoro-6-methoxy-biphenyl-3-ylmethyl)-pyrimidin-2-yl]-pyrrolidine-3-carboxylic acid methyl ester] |  |  |
|  |  | COc1ccc(Cc2ccc(N3CCC3C(=O)O)nc2)c(F)c1-c1cccc(Cl)c1 (stereo not drawn) [Example A-055, 1-[5-(3′-chloro-2-fluoro-6-methoxy-biphenyl-3-ylmethyl)-pyridin-2-yl]-azetidine-2-carboxylic acid] |  | < 5 µM |
| < 5 µM |  | CCNC(=O)N(CC(=O)O)c1ccc(Cc2ccc(OC)c(-c3cccc(Cl)c3)c2F)cn1 [Example A-056, {1-[5-(3′-chloro-2-fluoro-6-methoxy-biphenyl-3-ylmethyl)-pyridin-2-yl]-3-ethyl-ureido}-acetic acid] |  |  |
|  |  | NC(=O)Nc1ccc(Cc2ccc(OS(=O)(=O)O)c(-c3cccc(Cl)c3)c2)cc1 [Example A-062, Sodium sulfate of [4-(3′-Chloro-6-hydroxy-biphenyl-3-ylmethyl)-phenyl]-urea] | < 5 µM |  |
| < 5 µM |  | COC(=O)[C@@H]1CCCN1c1ccc(Cc2ccc(OC)c(-c3cccc(Cl)c3)c2F)cn1 [Example A-069, (S)-1-[5-(3′-chloro-2-fluoro-6-methoxy-biphenyl-3-ylmethyl)-pyridin-2-yl]-pyrrolidine-2-carboxylic acid methyl ester] |  |  |
| < 5 µM |  | COc1ccc(Cc2ccc(C(=O)O)nc2)cc1-c1cccc(Cl)c1 [Example A-071, 5-(3′-Chloro-6-methoxy-biphenyl-3-ylmethyl)-pyridine-2-carboxylic acid] |  |  |
| < 5 µM |  | COc1ccc(Cc2ccc(N(C)CC(=O)O)nc2)cc1-c1cccc(Cl)c1 [Example A-077, {[5-(3′-chloro-6-methoxy-biphenyl-3-ylmethyl)-pyridin-2-yl]-methyl-amino}-acetic acid] |  |  |
| < 5 µM |  | CN(CC(=O)O)c1ccc(Cc2ccc(OC(F)F)c(-c3cccc(Cl)c3)c2)cn1 [Example A-078, {[5-(3′-Chloro-6-difluoromethoxy-biphenyl-3-ylmethyl)-pyridin-2-yl]-methyl-amino}-acetic acid] |  |  |
| < 5 µM |  | C[C@H](C(=O)O)N(C)c1ccc(Cc2ccc(OC(F)F)c(-c3cccc(Cl)c3)c2)cn1 [Example A-079, (R)-2-{[5-(3′-Chloro-6-difluoromethoxy-biphenyl-3-ylmethyl)-pyridin-2-yl]-methyl-amino}-propionic acid] |  |  |
| 5 to 20 µM |  | COc1ccc(Cc2ccc(F)cc2)cc1-c1ccc[n+]([O-])c1 [Example B-084, 3-[5-(4-Fluoro-benzyl)-2methoxy-phenyl]-pyridine 1-oxide] |  |  |
